Data reported in PubChem BioAssay AID2060510 (Molecular Pharmacology Branch, DTP, NCI, 2025).

Test system: 439559-082-T-J2-PDC spheroids viability
Assay: Anticancer human tumor 439559-082-T-J2-PDC patient-derived colon adenocarcinoma cell line growth inhibition [GQUAD]
Conditions: for IC50: curve of first compound; for viability, T/C: stronger effect = lower value
Summary of the method: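 Tumor cells were grown as complex spheroids with HUVEC endothelial cells and mesenchymal stem cells as stroma. G-quadruplex stabilizers were combined with targeted agents over half-log dilutions from near the clinical Cmax, or from 10 microM.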

[1] = second compound 0.0316 µM, first compound 0.0316 µM
[2] = second compound 0.0316 µM, first compound 0.316 µM
[3] = second compound 0.1 µM, first compound 0.0316 µM
[4] = second compound 0.1 µM, first compound 0.316 µM
[5] = second compound 0.316 µM, first compound 0.0316 µM
[6] = second compound 0.316 µM, first compound 0.316 µM
[7] = second compound 1 µM, first compound 0.0316 µM
[8] = second compound 1 µM, first compound 0.316 µM
[9] = second compound 3.16 µM, first compound 0.0316 µM
[10] = second compound 3.16 µM, first compound 0.316 µM
[11] = second compound 10 µM, first compound 0.0316 µM
[12] = second compound 10 µM, first compound 0.316 µM
[13] = second compound 0.0316 µM, first compound 0.1 µM
[14] = second compound 0.0316 µM, first compound 1 µM
[15] = second compound 0.0316 µM, first compound 3.16 µM
[16] = second compound 0.0316 µM, first compound 10 µM
[17] = second compound 0.1 µM, first compound 0.1 µM
[18] = second compound 0.1 µM, first compound 1 µM
[19] = second compound 0.1 µM, first compound 3.16 µM
[20] = second compound 0.1 µM, first compound 10 µM
[21] = second compound 0.316 µM, first compound 0.1 µM
[22] = second compound 0.316 µM, first compound 1 µM
[23] = second compound 0.316 µM, first compound 3.16 µM
[24] = second compound 0.316 µM, first compound 10 µM
[25] = second compound 1 µM, first compound 0.1 µM
[26] = second compound 1 µM, first compound 1 µM
[27] = second compound 1 µM, first compound 3.16 µM
[28] = second compound 1 µM, first compound 10 µM
[29] = second compound 3.16 µM, first compound 0.1 µM
[30] = second compound 3.16 µM, first compound 1 µM
[31] = second compound 3.16 µM, first compound 3.16 µM
[32] = second compound 3.16 µM, first compound 10 µM
[33] = second compound 10 µM, first compound 0.1 µM
[34] = second compound 10 µM, first compound 1 µM
[35] = second compound 10 µM, first compound 3.16 µM
[36] = second compound 10 µM, first compound 10 µM
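Further: spheroids exposed to the agents for 7 days before readout.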
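Wherever viability, T/C is given: percent of luminescence signal in DMSO vehicle wells taken as 100% viability.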

`Cc1[nH]c2ccccc2c1CCNCc1ccc(/C=C/C(=O)NO)cc1` + Cc1[nH]c2ccc(F)cc2c1-c1nc2c3cccnc3c3ncccc3c2[nH]1 was tested, and the IC50 (second compound 0.0316 µM) was > 316 nM, the IC50 (second compound 0.1 µM) was > 316 nM and the IC50 (second compound 0.316 µM) was > 316 nM. The IC50 (second compound 1 µM) was > 316 nM, the IC50 (second compound 3.16 µM) was > 316 nM and the IC50 (second compound 10 µM) was > 316 nM. It also gave a viability, T/C (second compound 0.0316 µM, first compound 0.000999 µM) of 97.3%, a viability, T/C (second compound 0.0316 µM, first compound 0.00316 µM) of 107% and a viability, T/C (second compound 0.0316 µM, first compound 0.00999 µM) of 92.6%. For the same molecule, the viability, T/C [1] was 85.9%, the viability, T/C (second compound 0.0316 µM, first compound 0.0999 µM) was 102% and the viability, T/C [2] was 97.9%. The viability, T/C (second compound 0.1 µM, first compound 0.000999 µM) was 120%, the viability, T/C (second compound 0.1 µM, first compound 0.00316 µM) was 86.1% and the viability, T/C (second compound 0.1 µM, first compound 0.00999 µM) was 107%. It also gave a viability, T/C [3] of 92.9%, a viability, T/C (second compound 0.1 µM, first compound 0.0999 µM) of 101% and a viability, T/C [4] of 105%. It also gave a viability, T/C (second compound 0.316 µM, first compound 0.000999 µM) of 115%, a viability, T/C (second compound 0.316 µM, first compound 0.00316 µM) of 91.1% and a viability, T/C (second compound 0.316 µM, first compound 0.00999 µM) of 95.6%. The viability, T/C [5] was 100%, the viability, T/C (second compound 0.316 µM, first compound 0.0999 µM) was 91.6% and the viability, T/C [6] was 100%. It also gave a viability, T/C (second compound 1 µM, first compound 0.000999 µM) of 92.5%, a viability, T/C (second compound 1 µM, first compound 0.00316 µM) of 88.8% and a viability, T/C (second compound 1 µM, first compound 0.00999 µM) of 87.3%. For the same molecule, the viability, T/C [7] was 93.2%, the viability, T/C (second compound 1 µM, first compound 0.0999 µM) was 91.9% and the viability, T/C [8] was 91.3%. It also gave a viability, T/C (second compound 3.16 µM, first compound 0.000999 µM) of 84%, a viability, T/C (second compound 3.16 µM, first compound 0.00316 µM) of 70.6% and a viability, T/C (second compound 3.16 µM, first compound 0.00999 µM) of 87.9%. For the same molecule, the viability, T/C [9] was 78.5%, the viability, T/C (second compound 3.16 µM, first compound 0.0999 µM) was 90.2% and the viability, T/C [10] was 85.7%. It also gave a viability, T/C (second compound 10 µM, first compound 0.000999 µM) of 74%, a viability, T/C (second compound 10 µM, first compound 0.00316 µM) of 80.9% and a viability, T/C (second compound 10 µM, first compound 0.00999 µM) of 82.6%. It also gave a viability, T/C [11] of 83.2%, a viability, T/C (second compound 10 µM, first compound 0.0999 µM) of 91.5% and a viability, T/C [12] of 83.3%.

In the case of `O=C(NO)c1cnc(N2CCN(S(=O)(=O)c3ccc4ccccc4c3)CC2)nc1` + CN(C)c1ccc(Nc2c3ccc(NC(=O)CCN4CCCC4)cc3nc3cc(NC(=O)CCN4CCCC4)ccc23)cc1, the IC50 (second compound 0.0316 µM) is reported as 445 nM, the IC50 (second compound 0.1 µM) is reported as 393 nM and the IC50 (second compound 0.316 µM) is reported as 334 nM. The IC50 (second compound 1 µM) was 406 nM, the IC50 (second compound 3.16 µM) was 402 nM and the IC50 (second compound 10 µM) was 365 nM. It also gave a viability, T/C [1] of 96.5%, a viability, T/C [13] of 83.4% and a viability, T/C [2] of 69.9%. It also gave a viability, T/C [14] of 2.76%, a viability, T/C [15] of 0.18% and a viability, T/C [16] of 0.23%. It also gave a viability, T/C [3] of 99.8%, a viability, T/C [17] of 85.2% and a viability, T/C [4] of 61.5%. The viability, T/C [18] was 5.02%, the viability, T/C [19] was 0.16% and the viability, T/C [20] was 0.17%. The viability, T/C [5] was 98.3%, the viability, T/C [21] was 82% and the viability, T/C [6] was 54.6%. For the same molecule, the viability, T/C [22] was 3.28%, the viability, T/C [23] was 0.16% and the viability, T/C [24] was 0.13%. For the same molecule, the viability, T/C [7] was 83.1%, the viability, T/C [25] was 87.2% and the viability, T/C [8] was 62.5%. The viability, T/C [26] was 4.71%, the viability, T/C [27] was 0.12% and the viability, T/C [28] was 0.19%. It also gave a viability, T/C [9] of 88.2%, a viability, T/C [29] of 85.2% and a viability, T/C [10] of 62.5%. It also gave a viability, T/C [30] of 2.43%, a viability, T/C [31] of 0.12% and a viability, T/C [32] of 0.2%. For the same molecule, the viability, T/C [11] was 98.5%, the viability, T/C [33] was 80.9% and the viability, T/C [12] was 58.5%. The viability, T/C [34] was 5.85%, the viability, T/C [35] was 0.23% and the viability, T/C [36] was 0.19%.

For `C=CCn1c(=O)c2cnc(Nc3ccc(N4CCN(C)CC4)cc3)nc2n1-c1cccc(C(C)(C)O)n1` + Cc1[nH]c2ccc(F)cc2c1-c1nc2c3cccnc3c3ncccc3c2[nH]1, the IC50 (second compound 0.0316 µM) was 7900 nM, the IC50 (second compound 0.1 µM) was > 10000 nM and the IC50 (second compound 0.316 µM) was 8080 nM. For the same molecule, the IC50 (second compound 1 µM) was 8330 nM, the IC50 (second compound 3.16 µM) was 5740 nM and the IC50 (second compound 10 µM) was 5560 nM. The viability, T/C [1] was 94.2%, the viability, T/C [13] was 92.7% and the viability, T/C [2] was 97.6%. It also gave a viability, T/C [14] of 101%, a viability, T/C [15] of 115% and a viability, T/C [16] of 37%. For the same molecule, the viability, T/C [3] was 96.6%, the viability, T/C [17] was 88.4% and the viability, T/C [4] was 103%. It also gave a viability, T/C [18] of 92.9%, a viability, T/C [19] of 98.5% and a viability, T/C [20] of 57.4%. The viability, T/C [5] was 97.7%, the viability, T/C [21] was 102% and the viability, T/C [6] was 89%. It also gave a viability, T/C [22] of 104%, a viability, T/C [23] of 106% and a viability, T/C [24] of 38.6%. For the same molecule, the viability, T/C [7] was 107%, the viability, T/C [25] was 99% and the viability, T/C [8] was 100%. The viability, T/C [26] was 95.7%, the viability, T/C [27] was 96.9% and the viability, T/C [28] was 41.2%. For the same molecule, the viability, T/C [9] was 80.5%, the viability, T/C [29] was 80.2% and the viability, T/C [10] was 78.7%. It also gave a viability, T/C [30] of 75.5%, a viability, T/C [31] of 76.1% and a viability, T/C [32] of 25.9%. It also gave a viability, T/C [11] of 97.4%, a viability, T/C [33] of 71.8% and a viability, T/C [12] of 72.6%. The viability, T/C [34] was 71.3%, the viability, T/C [35] was 80.4% and the viability, T/C [36] was 20.3%.
